Assay results reported in patent publication US10662203B2, “Pyrido[2,3-b]indole compounds for the treatment and prophylaxis of bacterial infection” (Hoffmann-La Roche Inc., priority 2017, dated 2020).
Values after ≈ are worked out from the molar mass of the structure shown.

What was measured:
[1] = Cytotoxicity assay (HepG2, CellTiter-Blue cell viability); assay type: cell-based; conditions: human; HepG2 cells, 3 days treatment; "*": the detection limit; read-out: CC50
Method: The cytotoxicity of compounds of present invention was assessed by HepG2 assay. HepG2 cells (ATCC HB-8065™) were seeded into 96-well plates (1.2×10^4 cells per well) and treated with compounds for 3 days, cell viability was measured at day 3 post compound treatment using the CellTiter-Blue® Cell Viability Assay (Promega, Cat. No. G8082). 20 μL of Cell titer blue buffer were added to each well of the cells, which were incubated for 3 hours at 37° C., and the fluorescence value was measured by a plate reader (Molecular Device SpectraMax M2). The CC50 value of each compound is plotted with GraphPad Prism using four parameter logistic equation.

A. baumannii (ATCC17978) = experiment: 50% growth inhibitory concentration (IC50) determination assay; assay type: cell-based; conditions: Iso-Sensitest broth, 0.098 = detection limit
Summary of the method: (§1)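 Compounds were two-fold serially diluted (50 to 0.097 μM final) in Iso-Sensitest broth, with ~5×10^5 CFU/mL bacteria. Plates were incubated at 35±2° C and growth followed by OD600 every 20 min over 16 h to derive IC50.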

[2] = tested on: K. pneumoniae (ATCC10031); experiment: as above; assay type: cell-based; conditions: Iso-Sensitest broth, 0.098 = detection limit
Summary of the method: as §1

S. aureus (ATCC29213) = experiment: as above; assay type: cell-based; conditions: Iso-Sensitest broth, 0.098 = detection limit
Summary of the method: as §1

[3] = Lyophilisation solubility assay (LYSA); assay type: physicochemical; conditions: phosphate buffer, pH 6.5, aqueous buffer, thermodynamic from solid, 0.05 M phosphate buffer, HPLC-UV
Summary of the method: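 Duplicate samples made from 10 mM DMSO stock. DMSO evaporated and the residue taken up in 0.05 M phosphate buffer, pH 6.5, stirred 1 h and shaken 2 h, then left overnight. Filtrate and its 1/10 dilution quantified by HPLC-UV.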

[4] = Acinetobacter baumannii, ATCC17978, A. baumannii ATCC17978

| SMILES | CC50 at 3 days [1] [µM] | IC50 (A. baumannii (ATCC17978); [4]) [µM] | IC50 ([2]; Klebsiella pneumoniae) [µM] | IC50 (S. aureus (ATCC29213); Staphylococcus aureus) [µM] | solubility thermodynamic [3] [µg/mL] | IC50 (A. baumannii (ATCC17978); A. baumannii ATCC17978) [µM] | IC50 [2] [µM] | IC50 (S. aureus (ATCC29213)) [µM] |
| --- | --- | --- | --- | --- | --- | --- | --- | --- |
| CNc1cc(F)c(F)c2c1[nH]c1ncc(-c3cnc4c(c3)c(=O)c(C(=O)O)cn4C)c(N3CCC(C)(CO)C3)c12 (stereo not shown) [Example 1.84] | 26.8 | 0.326 | 0.11 | < 0.098 | – | – | – | – |
| CNc1cc(F)c(F)c2c1[nH]c1ncc(-c3cnc4c(c3)c(=O)c(C(=O)O)cn4C3CCNC3)c(N3CCSCC3)c12 (stereo not shown) [Example 1.98] | > 100 | 0.744 | 0.107 | 8.84 | – | – | – | – |
| CNc1cc(F)cc2c1[nH]c1ncc(-c3cnc4c(c3)c(=O)c(C(=O)O)cn4NC)c(N3CC4[C@@H](C3)OCCN4C)c12 (stereo partly shown) [Example 1.113] | > 100 | 0.586 | < 0.098 | < 0.098 | – | – | – | – |
| CNc1cc(F)c(F)c2c1[nH]c1ncc(-c3cnc4c(c3)c(=O)c(C(=O)O)cn4C)c(N3CCN4CCOCC4C3)c12 (stereo not shown) [Example 1.134] | > 100 | – | – | – | 11 (≈ 19.1 µM) | – | – | – |
| CCNc1cc(F)c(F)c2c1[nH]c1ncc(-c3cnc4c(c3)c(=O)c(C(=O)O)cn4C3CCNC3)c(N(C)C)c12 (stereo not shown) [Example 1.140] | > 100 | 0.631 | < 0.098 | < 0.098 | – | – | – | – |
| CNc1cc(F)c(F)c2c1[nH]c1ncc(-c3cnc4c(c3)c(=O)c(C(=O)O)cn4C3CCNC3)c(N(C)C)c12 (stereo not shown) [Example 1.150] | > 100 | – | – | – | – | 0.273 | < 0.098 | < 0.098 |
| CNc1cc(F)c(F)c2c1[nH]c1ncc(-c3cnc4c(c3)c(=O)c(C(=O)O)cn4C)c(N3CC[C@@H](O)C3)c12 [Example 1.151] | 37.2 | 0.311 | < 0.098 | < 0.098 | – | – | – | – |
| CNc1cc(F)c(F)c2c1[nH]c1ncc(-c3cnc4c(c3)c(=O)c(C(=O)O)cn4C)c(N3CC[C@H](O)C3)c12 [Example 1.163] | 28.9 | 0.171 | < 0.098 | < 0.098 | – | – | – | – |
| CNc1cc(F)c(F)c2c1[nH]c1ncc(-c3cnc4c(c3)c(=O)c(C(=O)O)cn4C)c(N3CC[C@H](CO)C3)c12 [Example 1.164] | 99.3 | 0.472 | < 0.098 | < 0.098 | – | – | – | – |
| CNc1cc(F)c(F)c2c1[nH]c1ncc(-c3cnc4c(c3)c(=O)c(C(=O)O)cn4C)c(N3CC[C@@H](CO)C3)c12 [Example 1.165] | > 100 | 0.336 | < 0.098 | < 0.098 | – | – | – | – |
| CNc1cc(F)c(F)c2c1[nH]c1ncc(-c3cnc4c(c3)c(=O)c(C(=O)O)cn4C)c(N3CCC4(CCCN(CCO)C4)C3)c12 (stereo not shown) [Example 1.194] | 72 | 0.199 | < 0.098 | < 0.098 | – | – | – | – |
| CNc1cc(F)cc2c1[nH]c1ncc(-c3cnc4c(c3)c(=O)c(C(=O)O)cn4NC)c(N3CC[C@H]4CCN(C)C4C3)c12 (stereo partly shown) [Example 1.212] | 33.9 | 0.18 | < 0.098 | 0.168 | – | – | – | – |
| CNc1cc(F)c(F)c2c1[nH]c1ncc(-c3cnc4c(c3)c(=O)c(C(=O)O)cn4NC)c(N3CC[C@H]4CN(C)C4C3)c12 (stereo partly shown) [Example 1.214] | 40.8 | 0.111 | < 0.098 | < 0.098 | – | – | – | – |
| CNc1cc(F)cc2c1[nH]c1ncc(-c3cnc4c(c3)c(=O)c(C(=O)O)cn4[C@@H](C)CO)c(N3CCOCC3)c12 [Example 1.216] | > 100 | 0.424 | < 0.098 | < 0.098 | – | – | – | – |
| CNc1cc(F)c(F)c2c1[nH]c1ncc(-c3cnc4c(c3)c(=O)c(C(=O)O)cn4C)c(N3CCC4(CCN(C)C4)CC3)c12 [Example 1.231] | 37.2 | 0.542 | < 0.098 | < 0.098 | – | – | – | – |
| CNc1cc(F)c(F)c2c1[nH]c1ncc(-c3cnc4c(c3)c(=O)c(C(=O)O)cn4C)c(N3CCC4(CCCN4C)C3)c12 (stereo not shown) [Example 1.239] | 32.9 | 0.104 | < 0.098 | < 0.098 | – | – | – | – |
| CNc1cc(F)c(F)c2c1[nH]c1ncc(-c3cnc4c(c3)c(=O)c(C(=O)O)cn4C3CCNC3)c(N3CCO[C@@H](C)C3)c12 (stereo partly shown) [Example 1.251] | > 100 | – | – | – | – | – | – | – |
| CNc1cc(F)c(Cl)c2c1[nH]c1ncc(-c3cnc4c(c3)c(=O)c(C(=O)O)cn4C)c(N3CCOCC3)c12 [Example 1.269] | 40.8 | 0.088 | < 0.098 | < 0.098 | – | – | – | – |
